We go through 23 molecules from patent US11524968B2, “Heterocyclic compound as a protein kinase inhibitor” (HK inno.N Corporation, priority 2017, dated 2022).

The target in this assay is JAK1 (Homo sapiens (Human), UniProt P23458). Description: Analysis of JAK1 activity inhibition ability (ADP-Glo Kinase Assay). Type of assay: biochemical. As to conditions: JAK1 enzyme, ADP-Glo luminescence, ATP 250 uM, IRS-itide substrate, 30° C. 40 minutes; read-out: IC50. A digest of the protocol: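 JAK1 enzyme, IRS-itide substrate (40 ng/mL) and 250 uM ATP, both as prepared in kinase buffer (Tris-HCl pH 7.5, MgCl2, BSA, DTT), reacted with compound 40 min at 30 °C. ADP formed was detected by ADP-Glo luminescence; IC50 is the concentration giving 50% inhibition versus control.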

Each structure is given as a SMILES string.

JAK1, sequence (P23458 whole entry): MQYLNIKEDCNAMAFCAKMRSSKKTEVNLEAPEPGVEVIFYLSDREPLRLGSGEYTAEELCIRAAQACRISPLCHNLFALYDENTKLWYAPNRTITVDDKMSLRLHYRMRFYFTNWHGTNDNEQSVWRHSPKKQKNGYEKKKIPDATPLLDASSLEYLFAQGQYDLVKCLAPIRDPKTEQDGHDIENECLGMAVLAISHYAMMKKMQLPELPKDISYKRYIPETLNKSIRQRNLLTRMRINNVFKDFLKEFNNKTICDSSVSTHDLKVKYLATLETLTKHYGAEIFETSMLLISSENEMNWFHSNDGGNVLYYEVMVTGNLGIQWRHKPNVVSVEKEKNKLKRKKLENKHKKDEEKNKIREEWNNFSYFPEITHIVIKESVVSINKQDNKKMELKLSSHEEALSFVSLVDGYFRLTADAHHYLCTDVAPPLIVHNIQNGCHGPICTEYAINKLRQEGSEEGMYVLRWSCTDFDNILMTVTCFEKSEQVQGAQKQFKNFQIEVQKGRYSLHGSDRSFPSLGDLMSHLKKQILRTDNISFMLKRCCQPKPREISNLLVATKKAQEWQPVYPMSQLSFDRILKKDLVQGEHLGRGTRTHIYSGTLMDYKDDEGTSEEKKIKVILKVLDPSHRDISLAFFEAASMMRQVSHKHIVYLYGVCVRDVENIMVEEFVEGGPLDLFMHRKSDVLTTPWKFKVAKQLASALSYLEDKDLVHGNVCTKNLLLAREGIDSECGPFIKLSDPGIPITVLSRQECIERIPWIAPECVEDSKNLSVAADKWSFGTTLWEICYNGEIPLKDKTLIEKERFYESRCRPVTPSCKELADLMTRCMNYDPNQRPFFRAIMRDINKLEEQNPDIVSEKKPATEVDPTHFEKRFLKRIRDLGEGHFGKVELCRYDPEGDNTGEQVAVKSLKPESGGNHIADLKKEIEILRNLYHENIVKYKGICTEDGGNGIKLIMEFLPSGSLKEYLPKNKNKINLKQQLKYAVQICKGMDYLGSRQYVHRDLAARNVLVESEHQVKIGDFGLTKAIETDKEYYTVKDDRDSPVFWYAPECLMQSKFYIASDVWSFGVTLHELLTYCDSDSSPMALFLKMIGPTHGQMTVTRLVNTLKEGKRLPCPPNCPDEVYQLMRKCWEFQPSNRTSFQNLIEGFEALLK

The IC50 is the concentration at which inhibition is half-maximal. On to `CCC(C#N)C(=O)N1CC=C(c2cc(NC(=O)C3CC3)nc3[nH]ccc23)CC1` (centres unmarked) [Example 271, N-(4-(1-(2-cyanobutanoyl)-1,2,3,6-tetrahydropyridin-4-yl)-1H-pyrrolo[2,3-b]pyridin-6-yl)cyclopropanecarboxamide], for which the IC50 lay in the range of 20 to 200 nM.
Take `O=C(Nc1cc(C2=CCN(C(=O)C(F)(F)F)CC2)c2cc[nH]c2n1)C1CC1` [Example 272, N-(4-(1-(2,2,2-trifluoroacetyl)-1,2,3,6-tetrahydropyridin-4-yl)-1H-pyrrolo[2,3-b]pyridin-6-yl)cyclopropanecarboxamide]: the IC50 lay in the range of 20 to 200 nM.
As for `CC1CC1C(=O)N1CC=C(c2cc(NC(=O)C3CC3)nc3[nH]ccc23)CC1` (centres unmarked) [Example 273, N-(4-(1-(2-methylcyclopropane-1-carbonyl)-1,2,3,6-tetrahydropyridin-4-yl)-1H-pyrrolo[2,3-b]pyridin-6-yl)cyclopropanecarboxamide], the figure is 20 to 200 nM; as for `O=C(Nc1cc(C2=CCN(C(=O)C3CC3F)CC2)c2cc[nH]c2n1)C1CC1` (centres unmarked) [Example 274, N-(4-(1-(2-fluorocyclopropane-1-carbonyl)-1,2,3,6-tetrahydropyridin-4-yl)-1H-pyrrolo[2,3-b]pyridin-6-yl)cyclopropanecarboxamide], under 20 nM; as for `N#CCC(=O)N1CC=C(c2cc(NC(=O)C3CC3)[n+]([O-])c3[nH]ccc23)CC1` [Example 275, 4-(1-(2-cyanoacetyl)-1,2,3,6-tetrahydropyridin-4-yl)-6-(cyclopropanecarboxamido)-1H-pyrrolo[2,3-b]pyridine 7-oxide], under 20 nM.
As for `O=C(Nc1cc(C2=CCN(C(=O)Cc3ccc(F)c(F)c3)CC2)c2cc[nH]c2n1)C1CC1` [Example 276, N-(4-(1-(2-(3,4-difluorophenyl)acetyl)-1,2,3,6-tetrahydropyridin-4-yl)-1H-pyrrolo[2,3-b]pyridin-6-yl)cyclopropanecarboxamide], the figure is 20 to 200 nM; as for `O=C(Nc1cc(C2=CCN(C(=O)c3ccncc3)CC2)c2cc[nH]c2n1)C1CC1` [Example 277, N-(4-(1-isonicotinoyl-1,2,3,6-tetrahydropyridin-4-yl)-1H-pyrrolo[2,3-b]pyridin-6-yl)cyclopropanecarboxamide], over 200 nM.
For the molecule `O=C(Nc1cc(C2=CCN(C(=O)c3ccoc3)CC2)c2cc[nH]c2n1)C1CC1` [Example 278, N-(4-(1-(furan-3-carbonyl)-1,2,3,6-tetrahydropyridin-4-yl)-1H-pyrrolo[2,3-b]pyridin-6-yl)cyclopropanecarboxamide], the IC50 is 20 to 200 nM.
As for `O=C(Nc1cc(C2=CCN(C(=O)c3ccc(F)cc3)CC2)c2cc[nH]c2n1)C1CC1` [Example 279, N-(4-(1-(4-fluorobenzoyl)-1,2,3,6-tetrahydropyridin-4-yl)-1H-pyrrolo[2,3-b]pyridin-6-yl)cyclopropanecarboxamide], the figure is 20 to 200 nM; as for `CN1CCC(C(=O)N2CC=C(c3cc(NC(=O)C4CC4)nc4[nH]ccc34)CC2)C1` (centres unmarked) [Example 280, N-(4-(1-(1-methylpyrrolidine-3-carbonyl)-1,2,3,6-tetrahydropyridin-4-yl)-1H-pyrrolo[2,3-b]pyridin-6-yl)cyclopropanecarboxamide], over 200 nM; as for `CN(C)CC(=O)N1CC=C(c2cc(NC(=O)C3CC3)nc3[nH]ccc23)CC1` [Example 281, N-(4-(1-(dimethylglycyl)-1,2,3,6-tetrahydropyridin-4-yl)-1H-pyrrolo[2,3-b]pyridin-6-yl)cyclopropanecarboxamide], over 200 nM.
For the molecule `O=C(Nc1cc(C2=CCN(C(=O)C3CC3C(F)(F)F)CC2)c2cc[nH]c2n1)C1CC1` (centres unmarked) [Example 282, N-(4-(1-(2-(trifluoromethyl)cyclopropane-1-carbonyl)-1,2,3,6-tetrahydropyridin-4-yl)-1H-pyrrolo[2,3-b]pyridin-6-yl)cyclopropanecarboxamide], the IC50 was in the range of 20 to 200 nM.
The figure for `CC1CN(C(=O)CC#N)CC=C1c1cc(NC(=O)C2CC2)nc2[nH]ccc12` (centres unmarked) [Example 283, N-(4-(1-(2-cyanoacetyl)-3-methyl-1,2,3,6-tetrahydropyridin-4-yl)-1H-pyrrolo[2,3-b]pyridin-6-yl)cyclopropanecarboxamide] is under 20 nM; for `CC1CN(C(=O)CCC#N)CC=C1c1cc(NC(=O)C2CC2)nc2[nH]ccc12` (centres unmarked) [Example 284, N-(4-(1-(3-cyanopropanoyl)-3-methyl-1,2,3,6-tetrahydropyridin-4-yl)-1H-pyrrolo[2,3-b]pyridin-6-yl)cyclopropanecarboxamide] it is under 20 nM; for `CC1CN(C(=O)CCCC#N)CC=C1c1cc(NC(=O)C2CC2)nc2[nH]ccc12` (centres unmarked) [Example 285, N-(4-(1-(4-cyanobutanoyl)-3-methyl-1,2,3,6-tetrahydropyridin-4-yl)-1H-pyrrolo[2,3-b]pyridin-6-yl)cyclopropanecarboxamide] it is 20 to 200 nM.
As for `O=C(Nc1cc(C2=CCN(C(=O)c3cnon3)CC2)c2cc[nH]c2n1)C1CC1` [Example 286, N-(4-(1-(1,2,5-oxadiazole-3-carbonyl)-1,2,3,6-tetrahydropyridin-4-yl)-1H-pyrrolo[2,3-b]pyridin-6-yl)cyclopropanecarboxamide], the IC50 is 20 to 200 nM.
As for `O=C(Nc1cc(C2=CCN(C(=O)c3cnoc3)CC2)c2cc[nH]c2n1)C1CC1` [Example 287, N-(4-(1-(isoxazole-4-carbonyl)-1,2,3,6-tetrahydropyridin-4-yl)-1H-pyrrolo[2,3-b]pyridin-6-yl)cyclopropanecarboxamide], the figure is 20 to 200 nM.
As for `O=C(Nc1cc(C2=CCN(C(=O)c3ccno3)CC2)c2cc[nH]c2n1)C1CC1` [Example 288, N-(4-(1-(isoxazole-5-carbonyl)-1,2,3,6-tetrahydropyridin-4-yl)-1H-pyrrolo[2,3-b]pyridin-6-yl)cyclopropanecarboxamide], the figure is 20 to 200 nM.
Regarding `Cc1c(NC(=O)C2CC2)nc2[nH]ccc2c1C1=CCN(C(=O)CC#N)CC1` [Example 289, N-(4-(1-(2-cyanoacetyl)-1,2,3,6-tetrahydropyridin-4-yl)-5-methyl-1H-pyrrolo[2,3-b]pyridin-6-yl)cyclopropanecarboxamide], the IC50 is over 200 nM.
The figure for `Cc1c(NC(=O)C2CC2)nc2[nH]ccc2c1C1=CCN(C(=O)CC(F)(F)F)CC1` [Example 290, N-(5-methyl-4-(1-(3,3,3-trifluoropropanoyl)-1,2,3,6-tetrahydropyridin-4-yl)-1H-pyrrolo[2,3-b]pyridin-6-yl)cyclopropanecarboxamide] is over 200 nM; for `O=C(Nc1cc(C2=CCN(C(=O)c3cscn3)CC2)c2cc[nH]c2n1)C1CC1` [Example 291, N-(4-(1-(thiazole-4-carbonyl)-1,2,3,6-tetrahydropyridin-4-yl)-1H-pyrrolo[2,3-b]pyridin-6-yl)cyclopropanecarboxamide] it is over 200 nM.
For the molecule `O=C(Nc1cc(C2=CCN(C(=O)c3cnsc3)CC2)c2cc[nH]c2n1)C1CC1` [Example 292, N-(4-(1-(isothiazole-4-carbonyl)-1,2,3,6-tetrahydropyridin-4-yl)-1H-pyrrolo[2,3-b]pyridin-6-yl)cyclopropanecarboxamide], the IC50 was under 20 nM.
The figure for `N#Cc1ccc(C(=O)N2CC=C(c3cc(NC(=O)C4CC4)nc4[nH]ccc34)CC2)cc1` [Example 293, N-(4-(1-(4-cyanobenzoyl)-1,2,3,6-tetrahydropyridin-4-yl)-1H-pyrrolo[2,3-b]pyridin-6-yl)cyclopropanecarboxamide] is 20 to 200 nM.
